These results are taken from patent US7189859B2, “Radiolabelled phenylethyl imidazole carboxylic acid ester derivatives” (priority 2003, dated 2007).

In series [1] the target is T1, cytochrome P-45011β enzyme system (Rattus norvegicus, UniProt P15393).
T1 construct: Whole adrenals from adult male Wistar rats were homogenized; from tissue; host or cells: whole adrenals of adult male Wistar rats, washed membrane pellet
T1 sequence (P15393 25-499): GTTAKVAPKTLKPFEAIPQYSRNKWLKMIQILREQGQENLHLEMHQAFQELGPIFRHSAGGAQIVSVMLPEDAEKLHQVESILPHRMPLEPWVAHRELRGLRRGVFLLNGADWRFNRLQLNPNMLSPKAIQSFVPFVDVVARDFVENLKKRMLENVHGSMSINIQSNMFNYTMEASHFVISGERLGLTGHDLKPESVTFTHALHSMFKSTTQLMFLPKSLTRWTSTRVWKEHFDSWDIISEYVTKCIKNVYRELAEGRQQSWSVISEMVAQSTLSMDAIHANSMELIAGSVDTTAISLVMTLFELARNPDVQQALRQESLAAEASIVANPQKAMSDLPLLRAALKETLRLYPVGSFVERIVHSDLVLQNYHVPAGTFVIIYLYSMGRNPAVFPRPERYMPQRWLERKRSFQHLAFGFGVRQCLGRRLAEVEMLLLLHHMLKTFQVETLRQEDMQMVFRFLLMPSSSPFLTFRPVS
Description: Displacement of [^131I]MTO binding. How it is done: Test compounds were incubated at 0.01–100 nM concentrations. Non-specific binding was determined with etomidate (10 μM). […] The filters containing membranes with bound radioligand were measured in a gamma-spectrometer.
IC50 values (the molar concentration of compound necessary to inhibit binding by 50%) were determined for each test compound by non-linear, least squares regression analysis, using an iterative curve fitting routine.

The test system of series [2] is lesions of adrenocortical origin. To be noted: clinical; cited from earlier work.
Series [3] has as its target T2, rat adrenal membranes (cytochrome P-450 β-hydroxylase) (Rattus norvegicus, UniProt P15393).
T2 sequence (P15393 25-499): T1 sequence (P15393 25-499)
Description: [^131I]MTO binding to rat adrenal membranes (association, dissociation, saturation). To be noted: for observable association rate constant v: data pooled from 7 experiments. How it is done:
Whole adrenals from adult male Wistar rats were homogenized in 10 mM K2HPO4/10 mM HEPES (pH 7.1) with a glass/teflon piston (Potter-type). The homogenate was centrifuged at 35.000×g for 10 min, the pellet was resuspended in fresh buffer and centrifuged again. Membranes were washed 2 more times and stored as aliquots at −80° C.
After incubation, membranes with bound radioligand were isolated by filtration through Whatman GF/B glass fiber filters (presoaked in buffer), followed by 2×4 mL washings with buffer, then filters were measured in a gamma-spectrometer.
For dissociation experiments, membranes were fully equilibrated with 2 nM radioligand, and the dissociation was initiated by the addition of excess unlabelled 4-iodo-MTO and stepwise filtration at 15 sec intervals.
For saturation studies 2–100 nM 4-iodo-MTO carrier was used. See summary in FIG. 1. […] Incubation for 30 minutes using 10 mM K2HPO4/10 mM HEPES, 150 mM NaCl (pH 7.1).

The next series has as its system adrenals. The experiment in a line: In vivo evaluation of ^131I-MTO (organ distribution after tail vein injection). As to conditions: rats. Here is the method:
Method: ^131I-MTO was used with a radiochemical purity >99% and a specific activity of 57 GBq/μmol. The radiotracer (0.5–1.1 MBq; […]) was injected into the tail vein of rats (female, 180–220 gram). Groups of four rats were sacrifized at specified times up to 24 hours post injection. The organs were excised and weighed, the radioactivity was measured at constant geometry using a gamma-spectrometer with a Nal(TI)-crystal. The data were expressed as percent of injected dose (ID) per organ and as percent of ID per gram tissue.

Series [4] deals with steroid 11β-hydroxylation. As to conditions: human adrenocortical tissue slices; cited from earlier work.
[5] abbreviates: read-out: IC50 (inhibition of [^131I]MTO binding), rat adrenal membranes.

Where two headings read alike, the source gives them in different places.

For the molecule `CC(c1ccccc1)n1cncc1C(=O)O` (stereo not drawn) [ETO-acid], in series [1] (setting [5]), the IC50 turned out to be 123000 nM.

Regarding `COC(=O)c1cncn1[C@H](C)c1ccc(I)cc1` [Example 4-iodo-MTO, (R)-methyl 3-[1-(4-iodophenyl)ethyl]-3H-imidazole-4-carboxylate], the 50% inhibitory concentration (IC50) in series [1] is 9 nM.

`C[C@H](c1ccccc1)n1cncc1C(=O)OCCF` [FETO]: the IC50 in series [1] (setting [5]) worked out at 3 nM.

`CC(C)(C(=O)c1cccnc1)c1cccnc1` [Metyrapone]: in series [1], the half-maximal inhibitory concentration (IC50) is 1200 nM.

Take `COC(=O)c1cncn1C(C)c1ccccc1` (stereo not drawn) [[O-methyl-^11C]metomidate]: in series [2], the “uptake in lesions of adrenocortical origin, including adenomas” value is listed as “high uptake” and the “uptake in lesions of non-adrenocortical origin” value was “very low uptake”.

The molecule `COC(=O)c1cncn1[C@H](C)c1ccc(I)cc1` [[^131I]MTO, (R)-3-[1-(4-[^131I]iodophenyl)ethyl]-3H-imidazole-4-carboxylic acid methyl ester] had a Kd in series [3] (saturation analysis, 2–100 nM 4-iodo-MTO carrier, 30 minutes incubation, pH 7.1, (15)) of 7.4 ± 2.8 nM.

On to `COC(=O)c1cncn1[C@H](C)c1ccc([131I])cc1` [[^131I]MTO, (R)-3-[1-(4-[^131I]iodophenyl)ethyl]-3H-imidazole-4-carboxylic acid methyl ester], for which the “observable association rate constant v” value in series [3] (ligand concentration 2 nM 4-iodo-MTO) turned out to be 0.65 min⁻¹; in series [3] (ligand concentration 4 nM 4-iodo-MTO), 1.23 min⁻¹; in series [3] (ligand concentration 11 nM 4-iodo-MTO), 1.34 min⁻¹. In the series with adrenals (intravenous (tail vein)), the “duration of radioactivity plateau in the adrenals” value was found to be 2 h. Besides, the route of elimination entry with adrenals (intravenous (tail vein)) was “eliminated both by hepatobiliary and by renal excretion”. Further, the “specific uptake in the adrenals” value in the series with adrenals (intravenous (tail vein)) was “approximately 10 % ID/g tissue”. The “time post injection up to which renal activity is increasing” value in the series on adrenals (renal activity attributed to ^131I-ETO-acid) is on record as “up to 4 hours”.

In series [1], `CCOC(=O)c1cncn1[C@H](C)c1ccccc1` [etomidate] displayed an IC50 of 1.1 nM. Besides, in series [4], the “inhibition of steroid 11β-hydroxylation” value was “block the conversion of 11-deoxycortisol to cortisol and of 11-deoxycorticosterone (DOC) to corticosterone and aldosterone”.

`COC(=O)c1cncn1C(C)c1ccccc1` (stereo not drawn) [metomidate]: the 50% inhibitory concentration (IC50) in series [1] stood at 3.7 nM. The “inhibition of steroid 11β-hydroxylation” value in series [4] is “equally potent inhibitor”.
